The source of these data is patent publication US20140350064A1, “PHARMACEUTICAL COMPOSITION COMPRISING AN AMPK ACTIVATOR AND A SEROTONERGIC AGENT AND METHODS OF USE THEREOF” (priority 2013, published 2014).

Common to all, as to type: in vivo, Sprague-Dawley rat
A short description of test [1]: Weight gain inhibition in Sprague-Dawley rats, 65 days' treatment. How it is done:
(§1) Male Sprague-Dawley rats were used with average body weight 223 g. The rats were fed with standard chow.
(§2) Before grouping, all animals were weighed at fasting state for 5 consecutive days. The first dose of the drug as indicated in Table 1 was administered on the next day after grouping; the dose was administered by gavage (t.i.d.) in a solution dose of […] body weight, and continued for a total of 65 days. Initially, each rat was treated accordingly with 0.25 mL drug solution; the dosage was then adjusted according to the body weight change of each rat, by increasing the dose by 0.05 mL for each 50 g body weight increment.
(§3) Groups were fed overnight with 30 g chowrat after drug administration and food deprived during daytime. Overnight food intake was measured every morning, while fasting body weight was measured every Tuesday and Friday night.
(§4) Statistical analysis was performed with SPSS software (IBM). One-way ANOVA was performed.

Test [2] can be described thus: Overnight food intake in Sprague-Dawley rats during dosing. Conditions: daily overnight food intake, 65 days of treatment, n=10. As to the method: as §1, §2, §3, §4
Test [3] can be described thus: Fat mass of Sprague-Dawley rats after 65 days' treatment. The settings on record: for Fat Mass: average total fat mass after 65 days, n=10. As to the method: as §1, §2, §4
The mark [4] stands for this setting: after 65 consecutive days of treatment.

As for `CC(C)CC(N(C)C)C1(c2ccc(Cl)cc2)CCC1` (centres unmarked) [SIB, sibutramine], in test [1] (setting [4]), the “Effect on body weight gain” value is “decreased body weight gain”. The Post-Dose body weight in test [1] (male Sprague-Dawley rats, gavage t.i.d., 65 days, fasting body weight, n=10) was 493.8 ± 13.0 g. In addition, the “ΔBW (increase of body weight)” value in test [1] (male Sprague-Dawley rats, gavage t.i.d., 65 days, n=10) was found to be 270.7 ± 11.6 g; in test [1] (male Sprague-Dawley rats, gavage t.i.d., 65 days, n=10, listed as sibutramine), 270.7 g. Moreover, the “Relative Body Weight” value in test [1] (vs. GS control group, 65 days, n=10) was -22.0 g. The “Weight Loss Ratio” value in test [1] (vs. GS control group, 65 days, n=10, listed as sibutramine) worked out at 4.3%. Moreover, the figures for the “Average Food Intake During Dosing” value in test [2] and in test [2] (listed as sibutramine) were 29.4 ± 0.9 g and 29.4 g, respectively. In test [3] (setting [4]), the “Effect on fat mass” value is reported as “reduced fat mass”. Moreover, the “Fat Mass” value in test [3] turned out to be 25.5 ± 6.3 g; in test [3] (listed as sibutramine), 25.5 g.
